# System: southern root-knot nematode (Meloidogyne incognita)
# Test: Test on effects against southern root-knot nematode: treated contaminated soil, cucumber pot test (Test Example 1 and Comparative Test)
# Assay type: in vivo
# Set-up: key: 0: No knot formed on the root at all; 1: Knots formed to a slight degree; 2: Knots formed to a moderate degree; 3: Knots formed to a heavy degree; 4: Knots formed to the heaviest degree
# Conditions: 200 ppm, 10 ml poured to 200 ml contaminated soil; cucumber; two to three weeks after sowing
# Description: The treated soil was put into a pot, three cucumber seeds were sown, and the pot was placed in a greenhouse. Two to three weeks after the sowing of the cucumber seeds, the root knot index was determined based on the degree of formation of root knots shown in Table 5. Each composition containing Compound No. […]-192 or B-196 at a concentration of 400 ppm and the composition containing Compound No. […] [table] […] Root knot index of 2 corresponds to a state where the proportion of healthy roots is 50% or less to the entire roots, and indicates control effects to such an extent that cucumber as a crop plant to be tested cannot healthily grow.
row,SMILES,root knot index
1,CC(C)(C(=NNC=O)c1ccccc1F)n1cnc(C(F)(F)F)n1 [A-153],1

# Same assay, conditions: 400 ppm, 10 ml poured to 200 ml contaminated soil; cucumber; two to three weeks after sowing
row,SMILES,root knot index
1,"O=CNN=C(c1ccccc1)C1(n2cnc(C(F)(F)F)n2)CC1 (single isomer, unassigned) [B-3]",1
2,"O=CNN=C(c1ccc(Cl)cc1)C1(n2ccc(C(F)(F)F)n2)CC1 (single isomer, unassigned) [B-87]",1
3,"O=CNN=C(c1ccc(F)cc1)C1(n2ccc(C(F)(F)F)n2)CC1 (single isomer, unassigned) [B-105]",1
4,CC(C)(C(=NNC=O)c1ccc(Cl)cc1)n1cnc(C(F)(F)F)n1 [A-90],1
5,CN(C=O)N=C(c1ccc(Cl)cc1)C(C)(C)n1cnc(C(F)(F)F)n1 [A-94],1
6,CCN(C=O)N=C(c1ccc(Cl)cc1)C(C)(C)n1cnc(C(F)(F)F)n1 [A-95],1
7,CCCN(C=O)N=C(c1ccc(Cl)cc1)C(C)(C)n1cnc(C(F)(F)F)n1 [A-96],1
8,CC(C)(C(=NNC=O)c1ccccc1Cl)n1ccc(C(F)(F)F)n1 [A-150],1
9,CC(C)(C(=NNC=O)c1ccccc1Cl)n1cnc(C(F)(F)F)n1 [A-151],1
10,CC(C)(C(=NNC=O)c1ccccc1F)n1ccc(C(F)(F)F)n1 [A-152],1
11,CC(C)(C(=NNC=O)c1ccc(F)cc1F)n1ccc(C(F)(F)F)n1 [A-156],1
12,CC(C)(C(=NNC=O)c1ccc(F)cc1F)n1cnc(C(F)(F)F)n1 [A-157],1
13,CC(C)(C(=NNC=O)c1c(F)cccc1F)n1ccc(C(F)(F)F)n1 [A-160],1
14,CC(C)(C(=NNC=O)c1c(F)cccc1F)n1cnc(C(F)(F)F)n1 [A-161],1
15,CCN(C=O)N=C(c1ccccc1Cl)C(C)(C)n1ccc(C(F)(F)F)n1 [A-193],1
16,C#CCN(C=O)N=C(c1ccccc1Cl)C(C)(C)n1ccc(C(F)(F)F)n1 [A-195],1
17,CC(C)(C(=NNC=O)c1ccccc1Cl)n1cnc(C(F)F)n1 [A-198],1
18,CC(C)(C(=NNC=O)c1ccccc1Cl)n1ccc(Cl)n1 [A-199],1
19,CC(C)(C(=NNC=O)c1ccccc1Cl)n1cnc(Cl)n1 [A-200],1
20,CC(C)(C(=NNC=O)c1ccccc1Cl)n1ccc(Br)n1 [A-201],1
21,CC(C)(C(=NNC=O)c1ccccc1Cl)n1cnc(Br)n1 [A-202],1
22,CC(C)(C(=NNC=O)c1ccccc1Cl)n1ccc(I)n1 [A-203],1
23,CC(C)(C(=NNC=O)c1ccccc1Cl)n1ccc([N+](=O)[O-])n1 [A-205],1
24,CC(C)(C(=NNC=O)c1ccccc1Cl)n1cnc([N+](=O)[O-])n1 [A-206],1
25,CC(C)(C(=NNC=O)c1ccccc1Cl)n1cc(C(F)(F)F)cn1 [A-216],1

row,SMILES,root knot index
1,CC(C)(C(=NNC=O)c1ccccc1Cl)n1cc(F)cn1 [A-217],1
2,CC(C)(C(=NNC=O)c1ccccc1Cl)n1nc(Br)nc1Br [A-224],1
3,CC(C)(C(=NNC=O)c1ccccc1Br)n1ccc(C(F)(F)F)n1 [A-233],1
4,COCN(C=O)N=C(c1ccccc1Br)C(C)(C)n1ccc(C(F)(F)F)n1 [A-235],1
5,CC(C)(C(=NNC=O)c1ccccc1I)n1ccc(C(F)(F)F)n1 [A-240],1
6,CC(C)(C(=NNC=O)c1ccccc1I)n1cnc(C(F)(F)F)n1 [A-241],1
7,Cc1ccccc1C(=NNC=O)C(C)(C)n1ccc(C(F)(F)F)n1 [A-244],1
8,Cc1ccccc1C(=NNC=O)C(C)(C)n1cnc(C(F)(F)F)n1 [A-245],1
9,Cc1ccccc1C(=NNC=O)C(C)(C)n1ccc(Cl)n1 [A-247],1
10,Cc1ccccc1C(=NNC=O)C(C)(C)n1cnc(Cl)n1 [A-248],1
11,Cc1ccccc1C(=NNC=O)C(C)(C)n1ccc(Br)n1 [A-249],1
12,Cc1ccccc1C(=NNC=O)C(C)(C)n1ccc([N+](=O)[O-])n1 [A-251],1
13,Cc1ccccc1C(=NNC=O)C(C)(C)n1cnc([N+](=O)[O-])n1 [A-252],1
14,Cc1ccccc1C(=NNC=O)C(C)(C)n1ccc(C#N)n1 [A-253],1
15,Cc1ccccc1C(=NNC=O)C(C)(C)n1cc(F)cn1 [A-255],1
16,Cc1ccccc1C(=NNC=O)C(C)(C)n1cc([N+](=O)[O-])cn1 [A-256],1
17,Cc1ccccc1C(=NNC=O)C(C)(C)n1cc(C#N)c(C(F)(F)F)n1 [A-257],1
18,CC(C)(C(=NNC=O)c1ccccc1C(F)(F)F)n1cnc(C(F)(F)F)n1 [A-261],1
19,COc1ccccc1C(=NNC=O)C(C)(C)n1ccc(C(F)(F)F)n1 [A-264],1
20,COc1ccccc1C(=NNC=O)C(C)(C)n1cnc(C(F)(F)F)n1 [A-265],1
21,CC(C)(C(=NNC=O)c1ccccc1OC(F)(F)F)n1ccc(C(F)(F)F)n1 [A-270],1
22,CC(C)(C(=NNC=O)c1ccccc1OC(F)(F)F)n1ccc(Br)n1 [A-272],1
23,CC(C)(C(=NNC=O)c1ccccc1OC(F)(F)F)n1cnc(C#N)n1 [A-273],1
24,CC(C)(C(=NNC=O)c1cccc(F)c1)n1cnc(C(F)(F)F)n1 [A-275],1
25,CC(C)(C(=NNC=O)c1cccc(F)c1)n1ccc(Cl)n1 [A-277],1

row,SMILES,root knot index
1,CC(C)(C(=NNC=O)c1cccc(F)c1)n1cnc(Cl)n1 [A-278],1
2,Cc1cccc(C(=NNC=O)C(C)(C)n2ccc(Cl)n2)c1 [A-324],1
3,CC(C)(C(=NNC=O)c1cccc(C(F)(F)F)c1)n1cnc(C(F)(F)F)n1 [A-327],1
4,COc1cccc(C(=NNC=O)C(C)(C)n2cnc(C(F)(F)F)n2)c1 [A-329],1
5,COc1cccc(C(=NNC=O)C(C)(C)n2ccc(Cl)n2)c1 [A-330],1
6,CC(C)(C(=NNC=O)c1cccc(Cl)c1Cl)n1ccc(C(F)(F)F)n1 [A-332],1
7,CC(C)(C(=NNC=O)c1cc(Cl)ccc1Cl)n1ccc(C(F)(F)F)n1 [A-334],1
8,CC(C)(C(=NNC=O)c1cc(Cl)ccc1Cl)n1cnc(C(F)(F)F)n1 [A-335],1
9,CC(C)(C(=NNC=O)c1cccc(F)c1F)n1ccc(C(F)(F)F)n1 [A-336],1
10,CC(C)(C(=NNC=O)c1cccc(F)c1F)n1cnc(C(F)(F)F)n1 [A-337],1
11,CC(C)(C(=NNC=O)c1ccc(F)cc1F)n1ccc(Cl)n1 [A-344],1
12,CC(C)(C(=NNC=O)c1cccc(F)c1Cl)n1ccc(C(F)(F)F)n1 [A-349],1
13,CC(C)(C(=NNC=O)c1cccc(F)c1Cl)n1cnc(C(F)(F)F)n1 [A-350],1
14,CC(C)(C(=NNC=O)c1cc(F)ccc1Cl)n1ccc(C(F)(F)F)n1 [A-351],1
15,CC(C)(C(=NNC=O)c1cccc2c1OC(F)(F)O2)n1ccc(C(F)(F)F)n1 [A-410],1
16,CC(C)(C(=NNC=O)c1cccc2c1OC(F)(F)O2)n1ccc(Cl)n1 [A-412],1
17,CC(C)(C(=NNC=O)c1cccc2c1OC(F)(F)O2)n1cnc(Cl)n1 [A-413],1
18,CC(C)(C(=NNC=O)c1cccc2c1OC(F)(F)O2)n1ccc(Br)n1 [A-414],1
19,CC(C)(C(=NNC=O)c1cccc2c1OC(F)(F)O2)n1cnc(C#N)n1 [A-417],1
20,CC(C)(C(=NNC=O)c1cccc2c1OC(F)(F)O2)n1cnc([N+](=O)[O-])n1 [A-419],1
21,CC(C)(C(=NNC=O)c1cccc2c1OC(F)(F)O2)n1cnc(C(F)F)n1 [A-424],1
22,CSc1ccn(C(C)(C)C(=NNC=O)c2cccc(F)c2)n1 [A-430],1
23,O=CNN=C(c1ccccc1)C1(n2ccc(C(F)(F)F)n2)CCC1 [B-81],1
24,O=CNN=C(c1ccccc1Cl)C1(n2ccc(C(F)(F)F)n2)CC1 [B-148],1

# Same assay, conditions: Comparative Test, active ingredient concentration 50 ppm; otherwise as Test Example 1 (cucumber)
row,SMILES,root knot index
1,"CC(C(=NNC=O)c1ccccc1)n1ccc(C(F)(F)F)n1 (centres unmarked) [Compound A-1 (WO2020/ 179910), reference compound]",2
2,"CC(C(=NNC=O)c1ccccc1)n1cnc(C(F)(F)F)n1 (centres unmarked) [Compound A-3 (WO2020/ 179910), reference compound]",2
3,"CC(C(=NNC=O)c1cccc(Cl)c1)n1ccc(C(F)(F)F)n1 (centres unmarked) [Compound A-58 (WO2020/ 179910), reference compound]",2

# System: soybean cyst nematode (Heterodera glycines)
# Test: Test on effects against soybean cyst nematode: treated contaminated soil, soybean pot test (Test Example 3)
# Assay type: in vivo
# Set-up: key: 0: No parasitic cyst observed on the roots at all; 1: Parasitic cyst observed to a slight degree; 2: Parasitic cyst observed to a moderate degree; 3: Parasitic cyst observed to a heavy degree; 4: Parasitic cyst observed densely on the entire roots
# Conditions: 800 ppm, 10 ml poured to 200 ml contaminated soil, about one month after sowing
# Description: . The treated soil was put into a pot, three soybean seeds were sown, and the pot was placed in a greenhouse. About one month after the sowing of the soybean seeds, the parasite index was determined based on the cyst parasite level on the roots shown in Table 7.
row,SMILES,parasite index
1,"O=CNN=C(c1ccccc1)C1(n2cnc(C(F)(F)F)n2)CC1 (single isomer, unassigned) [B-3]",1
2,CN(C=O)N=C(c1ccc(Cl)cc1)C(C)(C)n1ccc(C(F)(F)F)n1 [A-91],1
3,COCN(C=O)N=C(c1ccc(F)cc1)C(C)(C)n1ccc(C(F)(F)F)n1 [A-109],1
4,CN(C=O)N=C(c1ccccc1)C1(n2cnc(C(F)(F)F)n2)CC1 [B-6],1
5,COCN(C=O)N=C(c1ccccc1)C1(n2cnc(C(F)(F)F)n2)CC1 [B-24],1

# — patent US20240334931A1, “NEMATICIDAL COMPOSITION” (ISHIHARA SANGYO KAISHA, LTD., priority 2021, published 2024)
